Test results as given in ChEMBL document CHEMBL3137667, “[Drug-induced liver injury; fourteenth updated edition of the bibliographic database of liver injuries and related drugs]” (Gastroenterol Clin Biol, 2004).

Key:
[1] = human
[2] = human; remark: listed apart in the source
[3] = human; remark: listed apart in the source
[4] = human; remark: listed apart in the source
[5] = Times to onset, minimal and maximal, observed in the indexed observations. [column 'DELAI' in source]; details: human
[6] = human, serum
[7] = human; remark: listed apart in the source
[8] = human; remark: listed apart in the source
[9] = human; remark: listed apart in the source
[10] = human; remark: listed apart in the source
[11] = human; remark: listed apart in the source
[12] = human, serum; remark: listed apart in the source
[13] = Highest frequency of moderate liver toxicity observed during clinical trials, expressed as a percentage. [column '% BIOL' in source]; details: human
[14] = Highest frequency of acute liver toxicity observed during clinical trials, expressed as a percentage. [column '% AIGUE' in source]; details: human
[15] = human, serum, 4383 h
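Wherever Hepatotoxicity (association with vascular disease) is given: count of indexed literature references reporting vascular liver injury in humans, e.g. peliosis hepatitis, hepatic veno-occlusive disease or Budd-Chiari syndrome.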
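Wherever Hepatotoxicity (benign tumour) is given: value is a count of indexed literature references citing a benign tumour confirmed by histopathology.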
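Wherever Hepatotoxicity (choleostasis) is given: human cholestatic liver injury, shown by histopathology or by peak ALT or AST elevation over alkaline phosphatase ratio below 2, value counts indexed literature reports.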
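Wherever Hepatotoxicity (chronic liver disease) is given: chronic liver injury confirmed by histopathology or persistently raised serum aminotransferase activity beyond 6 months, value given as the count of indexed literature references.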
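Wherever Hepatotoxicity (cirrhosis) is given: value is a count of indexed literature references reporting cirrhosis confirmed by histopathology.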
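Wherever Hepatotoxicity (cytolytic) is given: human cytolytic liver injury, shown by histopathology or by a ratio above 5 of peak ALT or AST elevation to alkaline phosphatase elevation, value counts indexed references.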
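Wherever Hepatotoxicity (granulomatous hepatitis) is given: value is a count of indexed literature references reporting granulomatous liver disease confirmed by histopathology.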
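Wherever Hepatotoxicity (malignant tumour) is given: malignant tumour confirmed by histopathology, value gives the count of indexed literature references reporting it.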
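Wherever Hepatotoxicity (severe hepatitis) is given: human clinical data: severe hepatitis, meaning potentially life-threatening liver failure or clinically observed cases, the value counts how many indexed literature references report it.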
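Wherever Hepatotoxicity (steatosis) is given: steatosis confirmed by histopathology, value is the count of indexed references.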

Row | Compound | Hepatotoxicity (severe hepatitis) [1] | Hepatotoxicity (cirrhosis) [2] | Hepatotoxicity (benign tumour) [3] | Hepatotoxicity (steatosis) [4] | Hepatotoxicity (time to onset) [5] | Hepatotoxicity (moderate) [6] | Hepatotoxicity (association with vascular disease) [7] | Hepatotoxicity (choleostasis) [8] | Hepatotoxicity (malignant tumour) [9] | Hepatotoxicity (granulomatous hepatitis) [10] | Hepatotoxicity (cytolytic) [11] | Hepatotoxicity (acute) [12] | Hepatotoxicity (moderate) [13] | Hepatotoxicity (acute) [14] | Hepatotoxicity (chronic liver disease) [15] | also measured
1 | COc1ccc(CCN(C)CCCC2(c3ccc(OC)c(OC)c3)S(=O)(=O)CCCS2(=O)=O)cc1OC | 0 | 0 | 0 | 0 | 1 month | 2 | 0 | 1 | 0 | 0 | 0 | 1 | 6.7% | 0% | 0 | 
2 | COCc1c(C(C)C)nc(C(C)C)c(/C=C/[C@@H](O)C[C@@H](O)CC(=O)O)c1-c1ccc(F)cc1 [CERIVASTATIN] |  | 0 | 0 | 0 | 3 weeks |  | 0 | 1 | 0 | 0 | 1 |  |  |  | 0 | 
3 | CN(C)CCCC1(c2ccc(F)cc2)OCc2cc(C#N)ccc21 (centres undefined) [CITALOPRAM] | 1 | 0 | 0 | 0 | 4 weeks - 2 months | 2 | 0 | 1 | 0 | 0 | 1 |  | 5.3% | 0% | 0 | 
4 | COc1cc2c(cc1OC)C(=O)C(CC1CCN(Cc3ccccc3)CC1)C2 (centres undefined) [DONEPEZIL] | 0 | 0 | 0 | 0 | 10 days - 12 days | 0 |  | 2 | 0 | 0 | 0 | 2 | 0% | 0% | 0 | 
5 | O=C(NCC1CCCCN1)c1cc(OCC(F)(F)F)ccc1OCC(F)(F)F (centres undefined) [FLECAINIDE] | 0 | 0 | 0 | 0 | 2 days - 1 month | 3 | 0 | 2 | 0 | 0 | 1 |  | 36.7% | 0% | 0 | 
6 | CC(C)n1c(/C=C/C(O)CC(O)CC(=O)O)c(-c2ccc(F)cc2)c2ccccc21 (centres undefined) [FLUVASTATIN] |  | 0 | 0 | 0 | 8 months | 36 | 0 |  | 0 |  |  |  |  |  | 0 | Hepatotoxicity (severe hepatitis) ([1]; Liver): 0; Hepatotoxicity (choleostasis) ([8]; Liver): 2; Hepatotoxicity (granulomatous hepatitis) ([10]; Liver): 0; Hepatotoxicity (cytolytic) ([11]; Liver): 3; Hepatotoxicity (moderate) ([13]; Liver): 55%; Hepatotoxicity (acute) ([14]; Liver): 1.2%
7 | Cc1ccc(NC(=O)c2ccc(CN3CCN(C)CC3)cc2)cc1Nc1nccc(-c2cccnc2)n1 [IMATINIB] |  | 0 | 0 | 0 | 11 days - 12 days | 5 | 0 | 0 | 0 | 0 | 1 |  |  |  | 0 | Hepatotoxicity (severe hepatitis) ([1]; Liver): 1; Hepatotoxicity (moderate) ([13]; Liver): 100%
8 | CC(C(=O)O)c1cccc(C(=O)c2ccccc2)c1 (centres undefined) [KETOPROFEN] | 2 | 0 | 0 | 3 | 2 days - 2 weeks | 3 | 0 | 5 | 0 | 0 | 3 |  | 2.5% | 0% | 0 | 
9 | COC(=O)C1=C(C)NC(C)=C(C(=O)OCCN(C)Cc2ccccc2)C1c1cccc([N+](=O)[O-])c1 (centres undefined) [NICARDIPINE] | 0 | 0 | 0 | 1 | 2 months | 6 | 0 | 0 | 0 | 0 | 0 |  | 6.7% | 0% | 0 | 
10 | O=C(O)CCc1nc(-c2ccccc2)c(-c2ccccc2)o1 [OXAPROZIN] | 1 | 0 | 0 | 0 | 2 weeks - 6 months | 4 | 0 | 0 | 0 | 0 | 2 |  | 20% | 0.1% | 0 | 
11 | Cc1nnc2n1-c1ccc(Cl)cc1C(c1ccccc1Cl)=NC2 [TRIAZOLAM] |  | 0 | 0 | 0 | 4 months | 1 | 0 | 2 | 0 | 0 | 1 |  |  |  | 0 | Hepatotoxicity (severe hepatitis) ([1]; Liver): 2; Hepatotoxicity (moderate) ([13]; Liver): 0%
12 | C[C@@H](c1ncncc1F)[C@](O)(Cn1cncn1)c1ccc(F)cc1F [VORICONAZOLE] | 1 | 0 | 0 | 0 | 1 day - 1 year | 10 | 0 | 1 | 0 | 0 | 1 |  | 9.5% | 0% | 0 | 
13 | POVIDONE | 0 | 1 | 0 | 0 |  | 0 | 0 | 0 | 0 | 0 | 0 | 0 | 0% | 0% | 0 | 
14 | REVIPARIN SODIUM | 0 | 0 | 0 | 0 |  | 1 | 0 | 0 | 0 | 0 | 0 | 0 | 10.3% | 0% | 0 | 
15 | SODIUM NITROPRUSSIDE | 0 | 0 | 0 | 0 |  | 1 | 0 | 0 | 0 | 0 | 0 | 0 | 41% | 0% | 0 | 
16 | TINZAPARIN SODIUM | 0 | 0 | 0 | 0 |  | 3 | 0 | 0 | 0 | 0 | 0 | 0 | 35% | 0% | 0 | 
